According to patent US10323007B1, “N2N N4-disubstituted quinazoline-2,4-diamines and uses thereof” (University of South Florida, priority 2016, dated 2019):
Values after ≈ are worked out from the molar mass of the structure shown. Like-named read-outs stand apart in the source and are kept apart here.

Key:
[1] = system: A. baumannii 1651 biofilm; assay: biofilm eradication determination assay, strain 1651; type: cell-based, Acinetobacter baumannii; conditions: 90% biofilm eradication, Table 8
Protocol: These assays were performed as described by us previously,^26,24 as follows. Each of the A. baumannii strains were grown overnight in Mueller Hinton Broth (MHB). The next day these were used to seed fresh MHB to an OD600 of 0.5, with 150 μL then added to the wells of a 96 well plate and grown for 24 hours at 37° C. After 24 hours, the planktonic bacteria were carefully removed and fresh MHB was added with increasing concentrations of lead quinazolines. After incubation at 37° C. for 24 hours, planktonic cells were removed and biofilms were washed three times with phosphate buffered saline (PBS). Biofilms were then resuspended in PBS and plated for cell viability on tryptic soy agar. Biofilm recovery was assessed compared to no drug controls, and determined as percent eradication. This was used to determine MBEC90 values (Minimal Biofilm Eradication Concentration), where the viability of cells within the biofilm was reduced by 90%.

A. baumannii 1652 = assay: MIC assay, strain 1652; type: cell-based, Acinetobacter baumannii; conditions: strain 1652
Protocol: (§1) MIC and MBC assays were performed in this study as documented by us previously.^17,23,24,25 The A. baumannii strains used are detailed in Table 7.

A. baumannii 1651 = assay: minimal bactericidal concentration (MBC) assay, strain 1651; type: cell-based; conditions: Acinetobacter baumannii, Table 8, read-out: MBC90 1651
Excerpt: (§2) Lead quinazolines 4, 5, 26, 29, 27, and 30 were selected to be further evaluated for antimicrobial effects. The first assay utilized was a minimal bactericidal concentration (MBC) assay, to assess whether leads compounds were bacteriostatic or bactericidal. The six lead agents were screened to identify their MBC90 towards each of the six A. baumannii isolates used in the SAR studies (Table 8), however for simplicity only the representative data for isolate 1646 is detailed below (Table 6). […] Further to this, we were able to obtain complete eradication of bacterial growth for these two compounds at 1 μM for 24 and 5 μM for 25.
as §1

A. baumannii 1649 = assay: minimal bactericidal concentration (MBC) assay, strain 1649; type: cell-based; conditions: Acinetobacter baumannii, Table 8, read-out: MBC90 1649
Excerpt: as §2, §1

human HepG2 cells = type: cell-based
Protocol: Cytotoxicity assays were performed using human HepG2 cells (human liver epithelial with hepatocellular carcinoma), as described by us previously.^17,24 Cells were cultured in Dulbecco's modified eagle medium (DMEM), supplemented with 10% fetal bovine serum and 1% penicillin-streptomycin for 3 days at 37° C. and 5% CO2. Cells were then diluted to 1×10^5 ml^−1 using fresh DMEM and added to 96 well tissue culture plates at a volume of 100 μL. Plates were incubated for 24 hours at 37° C. and 5% CO2, allowing the cells to adhere to the plastic. […] Plates were then incubated for 48 hours at 37° C. and 5% CO2. After 48 hours the DMEM was removed and 100 μL of new media was added containing MTT (3-(4, 5-dimethylthiazol-2-yl)-2, 5-diphenyltetrazolium bromide), followed by incubation for four hours at 37° C. and 5% CO2. […] Lead compounds were solvated in 100% DMSO for these studies, which served as the negative control. LD50 values were determined for each compound by comparison to vehicle only controls.

## CNc1nc(NCc2ccccc2)nc2ccc(C)cc12 [Compound 5, N^2-Benzyl-N^4,6-dimethylquinazoline-2,4-diamine]
[1]
  MBEC90 1651: 11 µM
A. baumannii 1652; Acinetobacter baumannii, Table 2, read-out: 1652 MIC
  MIC: 20 µM (≈ 5.57 µg/mL)
A. baumannii 1652; Acinetobacter baumannii, lead quinazolines, Table 8, read-out: MIC 1652
  MIC: 20 µM (≈ 5.57 µg/mL)
A. baumannii 1652; Tables 1, 3, 4, 5 and footnotes, read-out: 1652 MIC
  MIC: 20 µM (≈ 5.57 µg/mL)
A. baumannii 1651
  MBC: 1.5 µM (≈ 0.418 µg/mL)
A. baumannii 1649
  MBC: 9.3 µM (≈ 2.59 µg/mL)
Human HepG2 cells; at 25 μM (highest concentration tested)
  HepG2 cell viability: 44%
Human HepG2 cells; human, 48 h
  LD50(HepG2): 22 µM
